# Source: patent publication US20240299416A1, “TREATMENT OF NF-kB-MEDIATED DISEASE” (ReveraGen BioPharma, Inc., priority 2021, published 2024)
# Key:
# [1] = VBP15-002 Phase IIa multiple ascending dose PK and safety; format: in vivo, human
# Protocol: (§1) Vamorolone clinical studies have been conducted in adult male volunteers and boys with DMD, a disorder in which skeletal muscle is in a chronic inflammatory state. Two consecutive open-label dose-ranging studies in 48 DMD patients aged 4 to <7 years (corticosteroid-naïve) were conducted (Phase IIa, VBP15-002; Phase IIa, VBP15-003). Doses were tested over a 24-fold dose range (0.25, 0.75, 2.0, and 6.0 mg/kg/day), with 12 participants per group. The first multiple ascending dose (MAD) cohort trial-tested pharmacokinetics (PK) and safety for 2 weeks of drug dosing followed by a 2-week washout (VBP15-002). […] All DMD participants completed the MAD study and then continued on the same dose for a 24-week dose-finding (efficacy and safety) extension study (VBP15-003).
# Three consecutive clinical trials of vamorolone treatment of DMD were conducted by CINRG (VBP15-002 [NCT02760264]; VBP15-003 [NCT02760277]; VBP15-LTE [NCT03038399]). A total of 48 participants (ages 4 to <7 years) were initially enrolled into VBP15-002, with trial participants completing month 12 of the 24-month VBP15-LTE study.
# VBP15-002 (Phase IIa; two weeks on the drug, two weeks off drug) enrolled 48 corticosteroid-naïve participants with DMD, and all 48 participants completed the study and enrolled into VBP15-003 (Phase IIa extension; 24-week treatment). […]
# [2] = VBP15-004 height and BMI z-scores, 24 to 48 weeks; format: in vivo, human; settings: for change in height Z scores: baseline to Week 24
# Protocol: (§2) The second period of 24 weeks, where all participants receive vamorolone treatment on either of the two dose levels, will continue to capture additional longer-term safety and tolerability data.
# Subjects already on vamorolone continued on the allocated dose level. Efficacy at Week 48 was assessed by Time to Stand (TTSTAND) velocity, 6-Minute Walk Test (6MWT), Time to Run/Walk 10 meters (TTRW) velocity, and North Star Ambulatory Assessment (NSAA). […] In contrast, the persistence of effects with vamorolone 2 mg/kg/day was less pronounced for some parameters. The safety profile was consistent for subjects who continued on the same dose of vamorolone throughout the study, with no increase in frequency or severity of adverse events being observed over time. […] In addition, vamorolone treatment at both doses reversed the growth impairment seen during prednisone treatment and was associated with fewer adverse events, including those associated with corticosteroid use.
# [3] = VBP15-003 24-week dose-finding extension, safety; format: in vivo, human
# Protocol: as §1
# VBP15-002 (Phase IIa; two weeks on the drug, two weeks off drug) enrolled 48 corticosteroid-naïve participants with DMD, and all 48 participants completed the study and enrolled into VBP15-003 (Phase IIa extension; 24-week treatment). Forty-six of 48 participants completed the VBP15-003 study (2 participants withdrew from VBP15-003 for reasons unrelated to the study drug). In addition, all participants (46/46) opted to enroll in the 24-month long-term extension study, VBP15-LTE.
# Only participants completing VBP15-002 and VBP15-003 were eligible to enroll in VBP15-LTE. Participants received vamorolone at 1 of 4 dose levels (0.25, 0.75, 2.0, or 6.0 mg/kg/day) and at the same dose level in both the 4-week VBP15-002 trial and the 24-week VBP15-003 trial. If participants, their families, and their physicians wished to continue vamorolone treatment upon exiting the VBP15-003 trial, they were offered participation in the 24-month long-term extension (VBP15-LTE). The last visit of the VBP15-003 trial was commensurate with the first visit of the VBP15-LTE trial. In all studies, study medication was provided as 4% flavored liquid suspension and was dosed according to body weight and given once daily in the morning with food.
# Study visits took place quarterly, including assessment of clinical laboratory results, vital signs, and AEs. All AEs were coded using the Medical Dictionary for Regulatory Activities (MedDRA version 19.0) system for reporting (preferred term and system organ class). Clinical efficacy assessments were performed at baseline of the VBP15-002 study, at six months (end of VBP15-003 study), and the 12-month midpoint visit of the VBP15-LTE study.
# osteocalcin, P1NP, CTX = assay: VBP15-004 bone turnover biomarkers; format: in vivo, human
# [4] = VBP15-004 adverse events at 24 weeks; set-up: species or system human; settings: in vivo
# From the text: In certain embodiments, the symptom may be an adverse event of special interest (AESI). In this context, AESIs are prespecified based on pre-defined MedDRA search criteria for eleven AESI categories for the corticosteroid class and then further stratified into AESI of at least moderate severity. The symptoms for treating DMD with corticosteroids include, but is not limited to, behavior adverse events, blood glucose related problems, gastrointestinal symptoms, increased arterial blood pressure, immune suppression/infections, skin/hair changes, cataracts/glaucoma, cushingoid features, weight gain, bone fractures, slow growth.
# as §2
smiles,measurement,setting,value
"C[C@@H]1C[C@H]2[C@@H]3CCC4=CC(=O)C=C[C@]4(C)C3=CC[C@]2(C)[C@@]1(O)C(=O)CO [Vamorolone, 17α,21-dihydroxy-16α-methylpregna-1,4,9(11)-triene-3,20-dione]",dose-limiting toxicities,"[1]; 2 weeks dosing, 0.25-6.0 mg/kg/day",no dose-limiting toxicities
same,drug accumulation,[1]; day 1 vs day 14,no drug accumulation
same,"height (z-score), absolute value, Mean","[2]; PDN/VAM 6 mg, Week 48",−0.12
same,BMI mean z-score,[2]; Treatment Period 2 after switch from prednisone to vamorolone 6 mg/kg/day,1.32
same,growth velocity,"[2]; both vamorolone doses, 48 weeks",preserved
same,BMI mean z-score,"[2]; continuing on 2 mg/kg/day, Week 24",1.10
same,BMI mean z-score,"[2]; continuing on 2 mg/kg/day, Week 48",0.91
same,BMI mean z-score,"[2]; continuing on 6 mg/kg/day, Week 24",1.40
same,BMI mean z-score,"[2]; continuing on 6 mg/kg/day, Week 48",1.32
same,change in height Z scores,[2]; vamorolone 2.0 mg/kg/day,overall stable height change Z scores
same,change in height Z scores,[2]; vamorolone 6.0 mg/kg/day,increased growth rate
same,"TEAE abnormal behavior, participants",[3]; 2.0-mg/kg/day group,one participant
same,"TEAE Cushingoid habitus, participants",[3]; 6.0-mg/kg/day group,one participant each
same,"TEAE abnormal blood cortisol level, participants",[3]; 6.0-mg/kg/day group,one participant each
same,"TEAE anxiety, participants",[3]; 6.0-mg/kg/day group,one participant each
same,"TEAE hypertrichosis, participants",[3]; 6.0-mg/kg/day group,two participants
same,"TEAE personality change, participants",[3]; 6.0-mg/kg/day group,one participant each
same,safety and tolerability,"[3]; oral, all doses tested, 24 weeks",safe and well-tolerated
same,"Osteocalcin, mean (SEM) change at Week 24","osteocalcin, P1NP, CTX; Vamorolone 2.0 mg",8.3 (3.1) ng/ml
same,"Procollagen 1 N-Terminal Propeptide (P1NP), mean (SEM) change at Week 24","osteocalcin, P1NP, CTX; Vamorolone 2.0 mg",48 (27) ng/mL
same,"Type I Collagen C-Telopeptides (CTX), mean (SEM) change at Week 24","osteocalcin, P1NP, CTX; Vamorolone 2.0 mg",177 (52) pg/mL
same,"Osteocalcin, difference vs. prednisone","osteocalcin, P1NP, CTX; Vamorolone 2.0 mg, Week 24",23.5 ng/mL
same,"Procollagen 1 N-Terminal Propeptide (P1NP), difference vs. prednisone","osteocalcin, P1NP, CTX; Vamorolone 2.0 mg, Week 24",182 ng/mL
same,"Type I Collagen C-Telopeptides (CTX), difference vs. prednisone","osteocalcin, P1NP, CTX; Vamorolone 2.0 mg, Week 24",477 pg/mL
same,"Osteocalcin, mean (SEM) change at Week 24","osteocalcin, P1NP, CTX; Vamorolone 6.0 mg",1.7 (2.8) ng/ml
same,"Procollagen 1 N-Terminal Propeptide (P1NP), mean (SEM) change at Week 24","osteocalcin, P1NP, CTX; Vamorolone 6.0 mg",−11 (22) ng/mL
same,"Type I Collagen C-Telopeptides (CTX), mean (SEM) change at Week 24","osteocalcin, P1NP, CTX; Vamorolone 6.0 mg",90 (44) pg/mL
same,"Osteocalcin, difference vs. prednisone","osteocalcin, P1NP, CTX; Vamorolone 6.0 mg, Week 24",16.9 ng/mL
same,"Procollagen 1 N-Terminal Propeptide (P1NP), difference vs. prednisone","osteocalcin, P1NP, CTX; Vamorolone 6.0 mg, Week 24",124 ng/mL
same,"Type I Collagen C-Telopeptides (CTX), difference vs. prednisone","osteocalcin, P1NP, CTX; Vamorolone 6.0 mg, Week 24",390 pg/mL
same,"effect on bone biomarkers (osteocalcin, PINP, CTX)","osteocalcin, P1NP, CTX; Week 24, vamorolone 2.0 and 6.0 mg/kg",did not decrease bone biomarkers
same,"clinically relevant psychiatric events, subjects",[4],no vamorolone-treated subjects
same,"Aggression, any severity, F","[4]; male, human, 24 weeks",1
same,"Agitation, any severity, F","[4]; male, human, 24 weeks",1
same,"Anxiety, any severity, F","[4]; male, human, 24 weeks",1
same,"Any Behavior AESI, moderate/severe, F","[4]; male, human, 24 weeks",1
same,"Irritability, any severity, F","[4]; male, human, 24 weeks",3
same,"Mood altered, any severity, F","[4]; male, human, 24 weeks",1
same,"Poor quality sleep, any severity, F","[4]; male, human, 24 weeks",1
same,"Psychomotor hyperactivity, any severity, F","[4]; male, human, 24 weeks",2
same,"Serious adverse events, F","[4]; male, human, 24 weeks",1
same,"Skin laceration, any severity, F","[4]; male, human, 24 weeks",1
same,"Skin laceration, moderate/severe, F","[4]; male, human, 24 weeks",1
same,"Sleep disorder, any severity, F","[4]; male, human, 24 weeks",1
same,"moderate/severe behavior problems, subjects","[4]; male, human, 24 weeks",1.7%
